Results reported in patent US8952177B2 (Janssen Pharmaceutica NV, priority 2013, dated 2015).
Structures can show the parent of a compound that is named as a salt.

Key:
[1] = test system: leukotriene pathway in human whole blood (LTB4); experiment: Human whole blood assay (LTB4 after calcium ionophore A23187 stimulation); format: cell-based; conditions: human whole blood diluted 1:1 in RPMI, 15 min pre-incubation, A23187 7 μg/mL for 30 min at 37° Celsius
Outline: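 Heparinised human whole blood, diluted 1:1 in RPMI, was preincubated with compound for 15 min at 37° C. before stimulation with A23187 (7 μg/mL) for 30 min. Plasma LTB4 was measured by immunoassay kit and IC50 obtained by 4-parameter fit; single replicate per plate, blood from at least one donor.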

human FLAP = human FLAP (Homo sapiens (Human), UniProt P20292); experiment: FLAP binding assay (HTRF format); conditions: human FLAP-containing Sf-9 membranes, 25 nM HTRF ligand, 2 h; average of runs; read-out: FLAP Binding wild type HTRF Ki
Chain of human FLAP (P20292 whole entry): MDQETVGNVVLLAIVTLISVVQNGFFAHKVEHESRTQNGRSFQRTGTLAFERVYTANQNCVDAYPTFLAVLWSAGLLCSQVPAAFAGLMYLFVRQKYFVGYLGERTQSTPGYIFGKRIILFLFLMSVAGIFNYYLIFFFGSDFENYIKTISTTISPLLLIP
Description: The ability of the compounds of the present invention to treat a FLAP-mediated disease and/or disorder, or associated symptoms or complications thereof, was determined using the following procedures. Binding assay data represent the average value obtained from two different assay plates, with samples run in duplicate on each plate. Human whole blood assay data represent a single replicate on an assay plate using whole blood from at least one healthy donor.
The assay below is used to test the modulatory activity of compounds against FLAP. Human and mouse FLAP-encoding DNA was amplified by polymerase chain reaction and cloned into pFastBacl (Invitrogen) with a NH2-terminal 6-His tag for expression in Spodoptera frugiperda (Sf-9) cells. FLAP-containing membranes were prepared as was a FITC-labeled FLAP modulator (3-(3-(tert-butylthio)-1-(4-chlorobenzyl)-5-(quinolin-2-ylmethoxy)-1H-indol-2-yl)-2,2-dimethylpropanoic acid). The FLAP binding assay is performed in HTRF format (homogeneous time resolved fluorescence). […] The reaction is allowed to proceed for two hours after which the plate is read on an Envision plate reader in HTRF mode. Data are expressed as a HTRF ratio.
For human FLAP binding assays, data are analyzed with 3DX Explorer software. […] For analysis, data from multiple runs are averaged and each compound may be tested in 2 to 20 runs. Each run comprises two plates and each plate includes duplicates. Data from each plate is averaged and data are imported into 3DX. The data from multiple runs are aggregated as the average of duplicates of the calculated ratios in order to calculate Ki and IC50 values. Numbers in parentheses are the number of runs for the assay.

IC50 ([1]; Homo sapiens) [nM] | Ki (human FLAP) [nM] | IC50 [1] [nM] | Structure (SMILES)
190 | 5.9 | – | COc1cc(OC(F)(F)F)ccc1Cn1c([C@H]2CCCC[C@H]2C(=O)O)nc2ccc(OCc3ccn(C)n3)cc21 (racemic) [Example 84, racemic cis-2-{1-[2-Methoxy-4-(trifluoromethoxy)benzyl]-6-[(1-methyl-1H-pyrazol-3-yl)methoxy]-1H-benzimidazol-2-yl}cyclohexanecarboxylic acid]
910 | 13 | – | Cn1cc(Cl)c(COc2ccc3nc([C@@H]4CCCC[C@@H]4C(=O)O)n(Cc4ccc(-c5ccc(C(F)(F)F)cc5)cc4)c3c2)n1 (racemic) [Example 151, racemic cis-2-(6-[(4-Chloro-1-methyl-1H-pyrazol-3-yl)methoxy]-1-{[4′-(trifluoromethyl)biphenyl-4-yl]methyl}-1H-benzimidazol-2-yl)cyclohexanecarboxylic acid]
3880 | 36 | – | CCC(CC)(Cc1nc2ccc(OCc3ccc(C)cn3)cc2n1Cc1cccc(-c2ccc(C(F)(F)F)cc2)c1)C(=O)O [Example 149, 2-ethyl-2-((6-((5-methylpyridin-2-yl)methoxy)-1-((4′-(trifluoromethyl)-[1,1′-biphenyl]-3-yl)methyl)-1H-benzo[d]imidazol-2-yl)methyl)butanoic acid]
47 | 1.2 | – | Cc1cnc(COc2ccc3nc([C@@H]4CCCC[C@@H]4C(=O)O)n(Cc4ccc(N5CCC(C)CC5)cc4)c3c2)c(F)c1 (racemic) [Example 178, racemic cis-2-{6-[(3-Fluoro-5-methylpyridin-2-yl)methoxy]-1-[4-(4-methylpiperidin-1-yl)benzyl]-1H-benzimidazol-2-yl}cyclohexanecarboxylic acid]
– | 12 | 550 | CCC(CC)(Cc1nc2ccc(OCc3ccn(C)n3)cc2n1Cc1ccc(-c2ccc(C(F)(F)F)cc2)cc1F)C(=O)O [Example 188]
300 | 7.5 | – | Cc1ccc(Cn2c([C@@H]3CCCC[C@@H]3C(=O)O)nc3c(F)cc(OCc4ccn(C)n4)cc32)cc1 (racemic) [Example 97, racemic cis-2-{4-Fluoro-1-(4-methylbenzyl)-6-[(1-methyl-1H-pyrazol-3-yl)methoxy]-1H-benzimidazol-2-yl}cyclohexanecarboxylic acid as the HCl salt]
2320 | 10 | – | CCC(CC)(Cc1nc2ccc(OCc3ccc(C)cn3)cc2n1Cc1ccc(Br)cc1)C(=O)O [Example 8, 2-({1-(4-Bromobenzyl)-6-[(5-methylpyridin-2-yl)methoxy]-1H-benzimidazol-2-yl}methyl)-2-ethylbutanoic acid as the TFA salt]
1060 | 18 | – | Cc1cc(OC(F)(F)F)ccc1Cn1c([C@@H]2CCCC[C@@H]2C(=O)O)nc2ccc(OCc3ccn(C)n3)cc21 (racemic) [Example 99, racemic cis-2-{6-[(1-Methyl-1H-pyrazol-3-yl)methoxy]-1-[2-methyl-4-(trifluoromethoxy)benzyl]-1H-benzimidazol-2-yl}cyclohexanecarboxylic acid]
1070 | 10 | – | Cc1ccc(COc2ccc3nc([C@H]4CCCC[C@H]4C(=O)O)n(Cc4ccc(C#N)cc4)c3c2)nc1 (stereo in doubt) [Example 39, (1R*,2S*)-2-{1-(4-Cyanobenzyl)-6-[(5-methylpyridin-2-yl)methoxy]-1H-benzimidazol-2-yl}cyclohexanecarboxylic acid]
980 | 7.4 | – | Cc1cnc(COc2ccc3nc(CC(C)(C)C(=O)O)n(Cc4ccc(-c5ccc(C(F)(F)F)cc5)cc4)c3c2)c(F)c1 [Example 142, 3-(6-[(3-Fluoro-5-methylpyridin-2-yl)methoxy]-1-{[4′-(trifluoromethyl)biphenyl-4-yl]methyl}-1H-benzimidazol-2-yl)-2,2-dimethylpropanoic acid]
3280 | 290 | – | Cc1ccc(Cn2c(C3[C@@H](C(=O)O)C3(C)C)nc3c(F)cc(OCc4ccc(C)cn4)cc32)cc1 (mixture of isomers) [Example 64, racemic cis-3-{4-Fluoro-1-(4-methylbenzyl)-6-[(5-methylpyridin-2-yl)methoxy]-1H-benzimidazol-2-yl}-2,2-dimethylcyclopropanecarboxylic acid as the TFA salt]
550 | 1.1 | – | Cn1ccc(COc2cc(F)c3nc([C@@H]4CCCC[C@@H]4C(=O)O)n(Cc4ccc(Br)cc4)c3c2)n1 (racemic) [Example 93, racemic cis-2-{1-(4-Bromobenzyl)-4-fluoro-6-[(1-methyl-1H-pyrazol-3-yl)methoxy]-1H-benzimidazol-2-yl}cyclohexanecarboxylic acid]
900 | 21 | – | Cc1ccc(COc2ccc3nc([C@@H]4CCCC[C@@H]4C(=O)O)n(Cc4ccc(OC(F)(F)F)cc4Cl)c3c2)nc1 (racemic) [Example 101, racemic cis-2-{1-[2-Chloro-4-(trifluoromethoxy)benzyl]-6-[(5-methylpyridin-2-yl)methoxy]-1H-benzimidazol-2-yl}cyclohexanecarboxylic acid as the HCl salt]
1820 | 13 | – | Cc1cnc(COc2ccc3nc(CC(C)(C)C(=O)O)n(Cc4cccc(-c5ccc(C(F)(F)F)cc5)c4)c3c2)c(F)c1 [Example 143, 3-(6-[(3-Fluoro-5-methylpyridin-2-yl)methoxy]-1-{[4′-(trifluoromethyl)biphenyl-3-yl]methyl}-1H-benzimidazol-2-yl)-2,2-dimethylpropanoic acid]

Structure (SMILES) | IC50 ([1]; Homo sapiens) [nM] | Ki (human FLAP) [nM] | IC50 [1] [nM]
Cc1ccc(COc2cc(F)c3nc(CC4(C(=O)O)CCCC4)n(Cc4ccc(Br)cc4)c3c2)nc1 [Example 61, 1-({1-(4-Bromobenzyl)-4-fluoro-6-[(5-methylpyridin-2-yl)methoxy]-1H-benzimidazol-2-yl}methyl)cyclopentanecarboxylic acid] | 2280 | 6 | –
Cc1cnc(COc2ccc3nc([C@@H]4[C@H](C(=O)O)C4(C)C)n(Cc4ccc(Br)cc4)c3c2)c(F)c1 (racemic) [Example 132, racemic cis-3-{1-(4-Bromobenzyl)-6-[(3-fluoro-5-methylpyridin-2-yl)methoxy]-1H-benzimidazol-2-yl}-2,2-dimethylcyclopropanecarboxylic acid] | 270 | 2.9 | –
Cc1ccc(Cn2c(CC3(C(=O)O)CCCC3)nc3c(F)cc(OCc4ccc(C)cn4)cc32)cc1 [Example 73, 1-({4-Fluoro-1-(4-methylbenzyl)-6-[(5-methylpyridin-2-yl)methoxy]-1H-benzimidazol-2-yl}methyl)cyclopentanecarboxylic acid as the TFA salt] | 3250 | 52 | –
Cc1cnc(COc2ccc3nc(CC(C)(C)C(=O)O)n(Cc4ccc(-c5ccc(C(F)(F)F)cc5)cc4F)c3c2)c(F)c1 [Example 141, 3-(6-[(3-Fluoro-5-methylpyridin-2-yl)methoxy]-1-{[3-fluoro-4′-(trifluoromethyl)biphenyl-4-yl]methyl}-1H-benzimidazol-2-yl)-2,2-dimethylpropanoic acid] | 760 | 5.1 | –
Cn1ccc(COc2ccc3nc([C@H]4CCCC[C@H]4C(=O)O)n(Cc4ccc(OC(F)(F)F)cc4F)c3c2)n1 (stereo in doubt) [Example 53, (1R*,2S*)-2-(1-(2-Fluoro-4-(trifluoromethoxy)benzyl)-6-((1-methyl-1H-pyrazol-3-yl)methoxy)-1H-benzo[d]imidazol-2-yl)cyclohexanecarboxylic acid] | 270 | 3 | –
CCC(CC)(Cc1nc2ccc(OCc3ccn(C)n3)cc2n1Cc1ccc(OC(F)(F)F)cc1F)C(=O)O [Example 56, 2-Ethyl-2-({1-[2-fluoro-4-(trifluoromethoxy)benzyl]-6-[(1-methyl-1H-pyrazol-3-yl)methoxy]-1H-benzimidazol-2-yl}methyl)butanoic acid] | ~2000 | 46 | –
Cn1cc(Cl)c(COc2ccc3nc([C@@H]4CCCC[C@@H]4C(=O)O)n(Cc4ccc(OC(F)(F)F)cc4F)c3c2)n1 (racemic) [Example 83, racemic cis-2-{6-[(4-Chloro-1-methyl-1H-pyrazol-3-yl)methoxy]-1-[2-fluoro-4-(trifluoromethoxy)benzyl]-1H-benzimidazol-2-yl}cyclohexanecarboxylic acid] | 350 | 4.2 | –
CCC(CC)(Cc1nc2c(F)cc(OCc3ccc(C)cn3)cc2n1Cc1ccc(Br)cc1)C(=O)O [Example 65, 2-({1-(4-Bromobenzyl)-4-fluoro-6-[(5-methylpyridin-2-yl)methoxy]-1H-benzimidazol-2-yl}methyl)-2-ethylbutanoic acid as the TFA salt] | 1120 | 6 | –
